Laboratory results from the METLIN SMRT retention time set (Domingo-Almenara et al. 2019).

Assay: gradient 5% acetonitrile 3 min, to 50% in 2 min, to 85% in 15 min, held 3 min, 100 µL/min
Conditions: column: Zorbax Extend-C18 2.1 x 50 mm; eluents: water / acetonitrile, 0.1% formic acid
Outline: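 Standards, all pure, were combined into mixtures of ~100 molecules and run at 100 μL/min on a Zorbax Extend-C18 column (2.1 × 50 mm, 1.8 μm) with water and acetonitrile, each containing 0.1% formic acid. A coupled quadrupole time-of-flight mass spectrometer operated in positive and negative ionization mode. Retention time values come from computationally picked adduct peaks, each inspected manually.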

First: O=C(NC1CC1)c1ccc2ncnc(N3CCCCC3)c2c1
Second: CN(C)c1ccc(C(=O)Nc2cnc(N3CCCCC3)nc2)cc1
The RP-LC retention time of the first is lower: 580 s for the first, 882 s for the second.

Going from `CCC(=O)N(C1CCOCC1)C1CCN(S(=O)(=O)c2cc(C)ccc2C)CC1` to `COc1ccc(Cl)cc1S(=O)(=O)N1CCC(C(=O)NCCO)CC1`, the RP-LC retention time falls from 908 s to 629 s.

Going from `COc1ccc(-c2ncc3c(n2)CCN(C(=O)Cc2ccc(OC)cc2Cl)C3)cc1` to `CCN1C(=O)CCc2c(C)nc(-c3ccc(OC)cc3)nc21`, the RP-LC retention time falls from 987 s to 901 s.

First: O=C(c1cccc(Br)c1)N1CCN(c2nnc3ccccn23)CC1
Second: CCn1c(=O)n(CC(=O)N2CCN(c3ccccn3)CC2)c(=O)c2cnc(-c3ccccc3)nc21
The RP-LC retention time of the first is lower: 662 s for the first, 697 s for the second.

Going from `CN(C)c1ccc(C(=O)NC2CCN(c3cc(-c4ccc(F)cc4)[nH]n3)C2)cc1` (stereo not given) to `O=C(NC1CCN(c2cc(-c3cccs3)[nH]n2)C1)c1cc(Cl)ccc1F` (stereo not given), the RP-LC retention time rises from 733 s to 800 s.

Going from `CC(C)NC(=O)CN1CCN(c2cc(C(=O)O)c3cc(NC(=O)c4ccccc4F)ccc3n2)CC1` to `COc1ccccc1-c1cnn2c(N3CCN(c4cccc(C)n4)CC3)cc(C)nc12`, the RP-LC retention time rises from 594 s to 638 s.

Compared with `Cc1ccnc(Nc2nc(-c3ccccc3C)cs2)c1`, `Cc1ccnc(Nc2nc(CC(=O)N3CCN(S(C)(=O)=O)CC3)cs2)c1` is lower in RP-LC retention time: 821 s for the first, 565 s for the second.

Compared with `COC(=O)c1cc2c(=O)n(Cc3ccccc3Cl)ccc2nc1C`, `CC(=O)N(C)Cc1nc2ccccc2n1CCOc1ccccc1Cl` is lower in RP-LC retention time: 902 s for the first, 599 s for the second.

Going from `COC(=O)c1sccc1NC(=O)N1CCCC1c1noc(COc2ccc(F)cc2)n1` (stereo not given) to `COc1ccccc1NC(=O)N1CCCC1c1cc(C)on1` (stereo not given), the RP-LC retention time falls from 1040 s to 800 s.

Going from `CCOc1ccccc1NC(=O)Cn1nc2c(Oc3cccc(F)c3)nccn2c1=O` to `CN(c1nccn2c(=O)n(CC(=O)Nc3ccc(F)c(Cl)c3)nc12)C1CCCCC1`, the RP-LC retention time falls from 906 s to 819 s.

Compared with `COc1cc(Cl)ccc1C(=O)N1C[C@@H]2C[C@H](NC(=O)c3ccccc3)[C@H]1C2`, `CSc1ccccc1NC(=O)C(=O)NCC1CCN(C(=O)Oc2ccccc2)CC1` is higher in RP-LC retention time: 759 s for the first, 998 s for the second.

Going from `CCc1ccc(Nc2nc(C(=O)N3CCOCC3)nc3ccccc23)cc1` to `O=C(NCc1ccc(F)cc1)c1nnc(-c2ccc(S(=O)(=O)N3CCOCC3)cc2)o1`, the RP-LC retention time rises from 771 s to 910 s.

First: Cc1nn(-c2ccc(-c3noc(C4CC4)n3)cc2)cc1C(=O)Nc1cc(F)ccc1F
Second: COc1ccc(C)cc1NC(=O)N1C[C@H](c2nc(-c3ccncc3)no2)[C@@H](C)C1
The RP-LC retention time of the first is higher: 1070 s for the first, 876 s for the second.

Compared with `Cc1ccc(NC(=O)C2CC(=O)N(c3ccc4c(c3)CCN4C(=O)C3CC3)C2)c(F)c1` (stereo not given), `Cc1ccc(NS(=O)(=O)c2cc3c(s2)CCN(C(=O)C2CC2)C3)cc1C` is higher in RP-LC retention time: 787 s for the first, 861 s for the second.

First: O=S1(=O)C[C@H](N2CCN(c3ccccn3)CC2)[C@@H](S(=O)(=O)c2ccc(Cl)cc2)C1
Second: CC(C)(C)c1cc(N2CCN(c3ccccn3)CC2)n2ncc(-c3ccc(Cl)cc3)c2n1
The RP-LC retention time of the first is lower: 643 s for the first, 1220 s for the second.

Compared with `O=C(Cc1nnc2cc(-c3nc(C4CC4)no3)ccn12)N1CCOCC1`, `CCn1cc(S(=O)(=O)N2CCC(c3noc(-c4ccncc4)n3)C2)cn1` (stereo not given) is higher in RP-LC retention time: 642 s for the first, 707 s for the second.

Compared with `O=C(Nc1ccc2c(c1)OCCO2)C1CCN(c2cc(N3CCSCC3)ncn2)CC1`, `CC1(C(=O)NCc2ccc(F)cc2)CCN(C(=O)Nc2ccc3c(c2)OCCO3)CC1` is lower in RP-LC retention time: 662 s for the first, 653 s for the second.

Compared with `COc1ccc(-c2nc3cnccn3c2Nc2ccc(Cl)cc2)cc1OC`, `COc1ccc(C(=O)Nc2c(-c3ccc(F)cc3)nc3ccccn23)cc1OC` is lower in RP-LC retention time: 830 s for the first, 625 s for the second.

Going from `CN(CC1CCOCC1)C(=O)Nc1cccc(Br)c1` to `CN(CC1CCOC1)C(=O)c1cc(F)cc(F)c1` (stereo not given), the RP-LC retention time falls from 784 s to 690 s.

Compared with `CCOc1ccc(NC(=O)c2c(NC(C)=O)sc3c2CCCC3)cc1`, `CCOc1ccc(CC(=O)N2CCCC2c2c(C)noc2C)cc1` (stereo not given) is lower in RP-LC retention time: 1090 s for the first, 902 s for the second.

Compared with `CCCc1noc(-c2ccnc(-n3ncc(C(=O)N4CCSCC4)c3C)c2)n1`, `COCCc1noc(-c2nc(-c3ccc(C)cc3)no2)n1` is higher in RP-LC retention time: 974 s for the first, 1120 s for the second.

Going from `CCn1c(=O)c2ccccc2n(Cc2nc(-c3cccc(Cl)c3)no2)c1=O` to `Cc1nc(-c2ccc(-c3noc(CNC(=O)Cc4ccccc4)n3)cc2)cs1`, the RP-LC retention time falls from 1090 s to 903 s.

First: CCOC(=O)Cc1c(C)c2cc(C(=O)c3ccccc3)c(O)cc2oc1=O
Second: CC1=NS(=O)(=O)N(Cc2ccccc2)C=C1C(=O)OCc1ccc(C)cc1C
The RP-LC retention time of the first is lower: 768 s for the first, 1220 s for the second.

First: Cc1cccc(-c2nc(N)n(C(=O)C(C)C)n2)c1
Second: Cc1cccc(-c2nc3cnccn3c2NCCC(=O)NCC(C)C)c1
The RP-LC retention time of the first is higher: 970 s for the first, 672 s for the second.

Compared with `NS(=O)(=O)c1cccnc1Nc1ccc(Cl)cc1`, `COc1ccc(-c2nc3ncccn3c2Nc2ccccc2)cc1` is lower in RP-LC retention time: 863 s for the first, 700 s for the second.

First: COc1ccc(S(=O)(=O)N2CCOC2CNC(=O)C(=O)NCc2ccccn2)cc1C (stereo not given)
Second: O=C(NCc1csc(-c2ccccc2)n1)C1CCN(S(=O)(=O)c2ccc3[nH]c(=O)oc3c2)CC1
The RP-LC retention time of the first is lower: 603 s for the first, 758 s for the second.

Compared with `COc1ccc(CC(=O)Nc2c3c(nn2-c2ccc([N+](=O)[O-])cc2)CSC3)cc1OC`, `CCNc1nccc(N2CCC(CC(=O)NCc3ccc(OC)c(OC)c3)CC2)n1` is lower in RP-LC retention time: 777 s for the first, 614 s for the second.

Compared with `CCOC(=O)c1c(C)c(C(=O)C(C)N(C(=O)c2ccc(Cl)cc2)C2CC2)c(C)n1CC` (stereo not given), `CCOC(=O)c1cc(C2CC2)nc2c1c(=O)n(Cc1cccc(C)c1)c(=O)n2C` is higher in RP-LC retention time: 1140 s for the first, 1230 s for the second.

Going from `Cn1nc(C(=O)NCc2cc(-c3cccs3)on2)ccc1=O` to `CCNC(=O)c1cc(-c2ccccc2)n(C)c1C`, the RP-LC retention time rises from 650 s to 805 s.

Compared with `CC1=C(c2ccc(C)c(C)c2)S(=O)(=O)N=C1N1CCCN(C(=O)NC2CCCC2)CC1`, `Cc1cccc(-c2noc(C3CCCN3C(=O)NC3CCCC3)n2)c1` (stereo not given) is higher in RP-LC retention time: 876 s for the first, 955 s for the second.

Compared with `c1ccc(CCNc2nnc(-c3nc(C4CC4)no3)c3ccccc23)nc1`, `O=S(=O)(c1ccccc1Cl)N1CCC(c2noc(COCC3CC3)n2)CC1` is higher in RP-LC retention time: 629 s for the first, 950 s for the second.

Going from `CCN1C(=O)C2(CCN(S(=O)(=O)c3ccc(CC(C)C)cc3)CC2)c2ccccc21` to `COc1cc2c(cc1OC)C1C(C(=O)NCc3ccc4c(c3)OCO4)c3ccccc3C(=O)N1CC2` (stereo not given), the RP-LC retention time rises from 587 s to 753 s.

Going from `CNC(=O)Cc1csc(NC(=O)CN(C)c2nc3ccccc3s2)n1` to `CC(C)(C)c1csc(-c2csc(S(=O)(=O)NCc3ccccc3)c2)n1`, the RP-LC retention time rises from 624 s to 1230 s.

Going from `Cc1cc(N2CCN(C)CC2)n2nc(-c3ccc(Cl)cc3)nc2n1` to `O=C(CSc1nnc2c3sc(N4CCCC4)nc3ncn12)Nc1cccc(Cl)c1`, the RP-LC retention time rises from 658 s to 874 s.

Going from `CCOc1ccc([C@H]2N(c3cc(C)on3)C(=O)[C@@H]3CCCN32)cc1` to `CCCc1cc(C2CCCN2C(=O)Cc2ccc(OC)c(OC)c2)no1` (stereo not given), the RP-LC retention time rises from 743 s to 760 s.

Going from `COCCCNC(=O)C(C)n1c(=O)c(C(F)(F)F)nc2ccccc21` (stereo not given) to `CCCCNC(=O)C(CC)n1nc(C)c2nn(-c3ccccc3)c(C)c2c1=O` (stereo not given), the RP-LC retention time rises from 854 s to 934 s.

Compared with `COc1ccc(C2(C(=O)N3CCC4(CC3)C(OC)CN4c3cccc(F)c3)CC2)cc1` (stereo not given), `COc1cccc(-c2cc3n(n2)CCCN(C(=O)COc2ccccc2)C3)c1` is lower in RP-LC retention time: 1090 s for the first, 788 s for the second.

Compared with `COC[C@@H](c1ccc(C(F)(F)F)cc1)N1CCN(C2(C)CCN(C(=O)c3c(C)ncnc3C)CC2)C[C@@H]1C`, `CC1CCN(C2=NCCN2C(=O)c2ccccc2Cl)CC1` is lower in RP-LC retention time: 744 s for the first, 655 s for the second.

First: Cc1ccc(CNc2cc(-n3ccnc3)ncn2)cc1
Second: COc1ccc(/C=C/c2nn3c(-c4cccnc4)nnc3s2)cc1
The RP-LC retention time of the first is lower: 648 s for the first, 860 s for the second.

Going from `Cc1cc(C(=O)NCCc2ccco2)c2c(=O)n(C)c(=O)n(C)c2n1` to `Cn1ncc2c3ccccc3n(CCCC(=O)NCc3ccco3)c2c1=O`, the RP-LC retention time rises from 688 s to 787 s.

Compared with `O=C(CN1CCN(Cc2ccccc2F)C1=O)NCCc1cccs1`, `CCOC(=O)CNC(=O)NCc1cccn1Cc1ccccc1` is higher in RP-LC retention time: 778 s for the first, 793 s for the second.

Going from `CC(C)(C)C(=O)Nc1ccc(C(=O)NCCNC(=O)Nc2ccccc2Cl)cc1` to `COc1ccc(CN2C=C(C(=O)OCc3noc(-c4ccccc4C)n3)C(C)=NS2(=O)=O)cc1`, the RP-LC retention time rises from 738 s to 861 s.

Going from `Cc1nc(Nc2ccc(Br)cn2)sc1C(=O)NC1CC1` to `CC(C)(C)c1cc(C(=O)NC2CCCCC2)nc2ccnn12`, the RP-LC retention time rises from 735 s to 1240 s.

Going from `O=S(=O)(c1ccc(F)cc1F)N1CCC(CN2CCCCCC2)CC1` to `CC(Cc1ccco1)NC(=O)C1CCN(Cc2cn(C)c3ccc(Cl)cc23)CC1` (stereo not given), the RP-LC retention time rises from 648 s to 707 s.

Going from `c1ccc(C(O[C@@H]2CCCN(CCc3ccc4c(c3)OCO4)C2)c2ccccc2)cc1` to `Cc1cnc(C2CN(Cc3ccccn3)C2)n1CC1CC1`, the RP-LC retention time falls from 961 s to 538 s.
